Assays:
Tetranychus urticae = experiment: Laboratory test of mite control (Unesp, Jaboticabal); assay type: in vivo; conditions: dose 30 g-mL/100 L, lab conditions; for Mite control (%) 1 DFA: 1 day following application; for Mite control (%) 2 DFA: 2 days following application; for Mite control (%) 3 DFA: 3 days following application; for Mite control (%) 4 DFA: 4 days following application; for Mite control (%) 7 DFA: 7 days following application
Description: Application of miticide propargite: application to control mites in lab conditions, performed by Unesp in Jaboticabal, SP. Quantitative (control) results are described in table 3. Assessments were made of the plant treated with miticide propargite against the witness plant (untreated).
Application of miticide abamectin: application to control mites in lab conditions, performed by Unesp in Jaboticabal, SP. Quantitative (control) results are described in Chart 4. Assessments were made of the plant treated with miticide abamectin against the witness plant (untreated).
Example 5: Laboratory Test Performed by Unesp in Jaboticabal, SP to Measure Mite Control, Specifically Control of Tetranychus Urticae with 4 Repetitions and 4 Treatments
The first (treatment 1) is a sample of the plant with no treatment (Witness). The second treatment is a sample treated with Folcysteine alone (treatment 2). The third treatment is a plant sample treated only with the agrotoxic of interest, miticide AI4 (based on propargite), identified as treatment 3, and the fourth treatment used a folcysteine-based biostimulant and an agrotoxic of interest, miticide AI4 (propargite-based), identified as treatment 4, applied under laboratory conditions. See the results in the following table:
Example 6: Laboratory Test Performed by Unesp in Jaboticabal, SP to Measure Mite Control, Specifically Control of Tetranychus Urticae with 4 Repetitions and 4 Treatments
The first (treatment 1) is a sample of the plant with no treatment (Witness). The second is a sample treated with Folcysteine alone (treatment 2). The third treatment is a plant sample treated only with the agrotoxic of interest, miticide AI5, and the fourth treatment uses a blend of folcysteine-based biostimulant and an agrotoxic of interest, miticide AI5 (abamectin-based), identified as treatment 4, applied under laboratory conditions.

corn = assay type: in vivo; conditions: dose 1.50 kg-l/ha

How did the “Mite control (%) 1 DFA” value (Tetranychus urticae) turn out when abamectin was run?
Its value is 20%.

What about the “Mite control (%) 2 DFA” value (Tetranychus urticae) of the same compound?
The value was 20%.

And the “Mite control (%) 3 DFA” value (Tetranychus urticae)?
Its value is 20%.

What about the “Mite control (%) 4 DFA” value (Tetranychus urticae) of the same compound?
Its value is 45%.

And the “Mite control (%) 7 DFA” value (Tetranychus urticae)?
The value was 62%.

`C#CCOS(=O)OC1CCCCC1Oc1ccc(C(C)(C)C)cc1` (centres unmarked) [Propargite, propargite] was tested. Which “Mite control (%) 1 DFA” value (Tetranychus urticae) did it give?
Its value is 59%.

What about the “Mite control (%) 2 DFA” value (Tetranychus urticae) of the same compound?
Its value is 63%.

And the “Mite control (%) 3 DFA” value (Tetranychus urticae)?
Its value is 70%.

And the “Mite control (%) 4 DFA” value (Tetranychus urticae)?
The value was 77%.

What about the “Mite control (%) 7 DFA” value (Tetranychus urticae) of the same compound?
Its value is 98%.

What does the source list for `CP(=O)(O)CCC(N)C(=O)O.N` (centres unmarked) [ammonium glufosinate]?
Productivity Index (corn; herbicide alone = 100): 100; Weight of 1,000 grains Index (corn; herbicide alone = 100): 100; Productivity (corn; spraying volume 300 l/ha): 7.142 b kg/ha; Weight of 1,000 grains (corn; spraying volume 300 l/ha): 25.89 a g

Source: patent US12185719B2, “Mixture of a folcysteine-based biostimulant and an agrotoxic substance of interest resulting in a quantitatively, qualitatively and time-related result-potentiating action as observed in an agricultural crop of a plant of interest” (priority 2017, dated 2025)
